US20060134286A1, “Gallocatechin gallate-containing composition” (Suntory Limited, priority 2002, published 2006)

Tested on: Streptococcus mutans (MT8148R)
Assay: Antibacterial activity against Streptococcus mutans (colony count after 1 hour contact with sample)
Assay type: cell-based
Conditions: final concentration of the sample 1 mg/mL; 37° C. for 1 hour; colonies counted on MS agar medium after 2 days
Method: Streptococcus mutans (MT8148R) was cultured in a brain heart infusion medium (BHI, manufactured by Difco) at 37° C. for 18 hours. After collection of the cells by centrifugation, the precipitate was washed three times with a phosphate buffer solution (PBS, pH 6.8). Then the cells were suspended to give an absorbance of 0.5 at 550 nm. Thus, about 2×10^7 colonies per mL (expressed in colony forming unit: CFU) were formed . Next, an equal amount of a previously prepared sample solution was added to the suspension and the resultant mixture was allowed to stand at 37° C. for 1 hour. 0.1 mL of this liquid mixture or the same mixture seriously 10-fold diluted was sowed on a Mitis salivarius agar medium (MS agar medium, manufactured by Difco). After culturing at 37° C. for 2 days, the colonies thus formed were counted. The antibacterial activity was indicated in the logarithm of CFU of test group/CFU of control lot (i.e., the reducing ratio).
The mixing ratio of EGCG to GCG (manufactured by Sigma) was varied so as to adjust the final concentration of the sample to 1 mg/mL and thus the antibacterial activity was examined. […]

Compound | Antibacterial activity (logarithm of CFU of test group/CFU of control lot, the reducing ratio)
(−)-epigallocatechin gallate [EGCG] | −3.50
O=C(O[C@@H]1Cc2c(O)cc(O)cc2O[C@H]1c1cc(O)c(O)c(O)c1)c1cc(O)c(O)c(O)c1 [GCG, gallocatechin gallate] | −3.17
